Source: patent US8119116B2, “Therapeutics for cancer using 3-bromopyruvate and other selective inhibitors of ATP production” (John Hopkins University School of Medicine, priority 2001, dated 2012)

Experiments:
VX2 tumor slices = test: Glycolysis (lactic acid formation) in VX2 tumor slices; assay type: cell-based, rabbit
Description: Glycolysis was assayed by monitoring the formation of lactic acid following the addition of glucose to a medium containing VX2 tumor slices. Specifically, freshly excised tumors were washed 3 times at 4° C. in 20 ml Chance Hess Medium containing 6.2 mM KCl, 154 mM NaCl, and 11 mM NaPi, pH 7.4. Slices, 1 g each, were then prior incubated for 30 min in a Lab-Line incubator-shaker at 37° C. in 2 ml of the same medium while shaking at 50 rpm. Glucose was then added to give a final concentration of 6 mM, after which the incubation/shaking process was continued with 0.2 ml samples being removed every 30 min for up to 2 h. These samples were subjected to centrifugation at 14,000 rpm in an Eppendorf Centrifuge (Model 5415C). Then, aliquots of the supernatant, 0.01 ml, were removed from each sample, diluted with 0.03 ml of water and subjected to lactic acid determination using the kit supplied by Sigma. The latter contains, in addition to lactic dehydrogenase and NAD+, hydrazine, and glycine buffer, pH 9.2. The mixture was incubated for 30 min at 25° C. after which the absorbance due to formation of NADH was determined at 340 nm using a Gilford Model 260 spectrophotometer. To assess the elevation of the glycolytic activity of the VX2 tumor over that of liver tissue, parallel studies were always carried out in an identical manner with 1 g liver slices derived from the host liver. Finally, in those cases where agents were tested for their capacity to inhibit glycolysis, these were introduced into the system at the prior incubation step with all subsequent steps being run in parallel with those described above for the VX2 tumor or liver alone.
The screen included the following 9 compounds: 2-deoxyglucose (2DOG), 2-fluoro-2-deoxyglucose, 6-fluoro-6-deoxyglucose, 3-O-methyl glucose, 5-thio-D-glucose-6-phosphate, L-glucose, D-xylose, D-lyxose, and 3-bromopyruvic acid (3BrPA). The screen was conducted by incubating VX2 tumor slices in a medium containing 6 mM glucose with 6 mM of each of these agents at 37° C. for 5 h. The use of 6 mM glucose in the medium was used to mimic the maximal amount of glucose that might be in the blood in a real in vivo situation.
With the above preliminary data at hand, only two of the 9 compounds screened were studied in more detail. One was 2DOG because under certain conditions it is known to inhibit glycolysis when it is phosphorylated by hexokinase to 2DOG-6-P which cannot be further metabolized. The other compound tested in more detail was 3BrPA because of its effectiveness as a glycolytic inhibitor in the preliminary screen.

[1] = tested on: liver implanted VX2 tumors; test: Direct intraarterial injection into liver implanted VX2 tumors, tumor histology; assay type: in vivo, rabbit; conditions: single intraarterial injection
Excerpt: The rabbit VX2 tumor was selected for implantation in the liver because of the similarities of its blood supply to that of human hepatomas. Other attributes of this tumor include rapid tumor growth, development of a sizable tumor that can be readily identified by x-ray imaging (fluoroscopy), and a biochemical phenotype characteristic of advanced stage tumors, i.e., high glycolysis and elevated levels of mitochondrial bound hexokinase. In addition, the rabbit is large enough that selective manipulation of catheters in the hepatic artery from the common femoral artery for delivery of agents is possible. Adult New Zealand white rabbits (32 total, Robinson Services, Inc.) weighing 3.5-4.2 kg were used. Studies with these animals were approved by the Johns Hopkins University Animal Care and Use Committee and carried out according to their guidelines. For successful implantation of the VX2 tumor into the liver, it was first grown for 2 weeks on the hind leg of a carrier rabbit. Each carrier rabbit was used to supply tumor cells for implantation into the left lobe of the liver of 2 separate rabbits. All animals, carriers and recipients, were anesthetized with a mixture of acepromazine (2.5 mg/kg) and ketamine hydrochloride (44 mg/kg) administered intramuscularly. Intravenous access was gained via a marginal ear vein and sodium pentothal was given intravenously to maintain anesthesia. The VX2 tumor was then excised from the carrier rabbit and placed in Hanks solution. Chunks of the tumor were minced in the same solution. Then, the abdomens of the recipient rabbits were shaved and prepped with betadine after which a midline subxyphoid incision was made. The anterior surface of the liver was exposed and tumor cells (0.1-0.2 ml) from the minced donor tumor were directly implanted onto the left lobe of the liver using the outer cannula of a 21-gauge angiocatheter. This method allows the growth of a single solitary, well-demarcated tumor in the liver of each recipient rabbit. The abdomen was closed in 2 layers. Proper aseptic technique was rigorously observed during each implantation. After surgery, animals were returned to their cages, kept warm with blankets, and monitored in the animal laboratory under the direct supervision of a physician or a technician until they recovered from anesthesia. […] The tumors were allowed to grow for another 14 days at which time they reached an ellipsoidal shape with dimension of approximately 1.5×1.8×2.5 cm. […]
Administration of anesthesia, intravenous access and sodium pentothal anesthesia were carried out as described in Example 12. […] The tumor could readily be visualized as a region of hypervascular blush located on the left side of the liver near the gastric fundus. […]

[2] = tested on: liver implanted VX2 tumors; test: Systemic delivery via marginal ear vein, effect on liver implanted VX2 tumors; assay type: in vivo, rabbit; conditions: 25 ml, 0.5 mM via a marginal ear vein
Description: (§1) Normal tissues and tumors were fixed in 10% formalin, sliced at […] intervals for gross examination, and then embedded completely in paraffin after which […] sections were stained with hemotoxylin and eosin. Tumor viability was estimated by visual inspection and expressed as a percentage of viable tumor area for each slice. The overall percentage of viable tumor in each rabbit was calculated.
(§2) Finally, it was important to examine the effect of 3-BrPA when delivered systemically (i.e., via the general circulation) on both animal toxicity and its capacity to damage liver implanted tumors.

"metastatic" lung tumors = test: Systemic delivery via marginal ear vein, effect on metastatic lung tumors; assay type: in vivo, rabbit; conditions: 25 ml, 0.5 mM, 4 days
Description: as §1, §2

For `O=C(O)C(=O)CBr` [3BrPA, 3-bromopyruvic acid], the “inhibition of VX2 tumor glycolysis in the limited screen” value (VX2 tumor slices; 6 mM agent, 6 mM glucose, 37° C., 5 h) was “almost completely inhibited”, the IC50 (VX2 tumor slices; Oryctolagus cuniculus, 0.5 h, read-out: half maximal inhibition of glycolysis) was 2400 µM and the “concentration for maximal or complete inhibition of glycolysis” value (VX2 tumor slices; VX2 tumor slices, agent prior incubated 30 min at 37° C.) was “about 15 mM”. For the same compound, the “maximal number of non-viable cells observed in any one experiment” value [1] was 90%, the “total non-viable cells in the tumor” value ([1]; 25 ml 0.5 mM, 4 days) was 84±5% and the “viable cells in the tumor” value ([1]; 25 ml 0.5 mM, 4 days) was 16±5%. The “necrosis in tumor sections outside the central core region” value ([1]; 4 days) was roughly 100%, the “killing effect on liver implanted VX2 tumors” value [2] was “no killing effect” and the “size of secondary tumors in the lungs” value ("metastatic" lung tumors) was “only very small tumors”. For the same compound, the “"metastatic" lung tumors greater than 1 mm in diameter” value ("metastatic" lung tumors; 5 in untreated animals) was “almost complete disappearance and none”.
